Experimental data as given in patent US20120269802A1, “Treatment And Prognosis With Thalidomide In Multiple Myeloma Based on Karyotyping And Gene Expression Profiling” (Board Of Trustees Of The University Of Arkansas, priority 2009, published 2012).

Test system: multiple myeloma
Assay: Total Therapy 2 (TT2) randomized trial, control arm vs thalidomide arm: survival (Kaplan-Meier, Cox regression)
Assay type: in vivo, patients
Settings: for Overall Survival HR (95% CI), randomization to thalidomide: all patients with GEP data
Excerpt: To clarify the underlying mechanism, survival was examined in the 351 patients for whom gene expression profiling and cytogenetic data were available. […] Survival in the context of cytogenetic abnormalities involving chromosomal loci (CA1, CA13) was also examined. Statistical methods including Cox regression modeling were employed to define variables independently impacting outcomes.
Of all 668 patients accrued to TT2, the 351 with gene expression profiling data available on CD138-purified plasma cells prior to initiation of therapy are the subjects of this report. […] The sole clinical outcome focus in this example is the overall survival measured from initiation of therapy.
Kaplan-Meier methods were used to generate survival distribution graphs and comparisons were made using the log-rank test. Categorical comparisons were made using the chi-squared test. Running log-rank tests were used to determine optimal cut points for IL6R expression levels. Multivariate analyses applied stepwise selection and Cox proportional hazard regression modeling.
In each of Tables 2-3: HR—Hazard Ratio, 95% Cl-95% Confidence Interval, P-value from Wald Chi-Square Test in Cox Regression NS2-Multivariate results not statistically significant at 0.05 level. All univariate p-values reported regardless of significance. Multivariate model uses stepwise selection with entry level 0.1 and variable remains if meets the 0.05 level. A multivariate p-value greater than 0.05 indicates variable forced into model with significant variables chosen using stepwise selection. Variables considered for the multivariate model were: Cytogenetic abnormalities, CA1, CA13, CA 1+13, Albumin <3.5 g/dL, B2M >5.5 mg/L, Creatinine ≧2 mg/dL, Hb <10 g/dL, LDH ≧190 U/L, GEP high-risk, GEP TP53 deletion, GEP IL6R expression ≧2900, GEP CKS1B Q4, Randomization to thalidomide, IL6R and CA 1+13 (interaction term).

O=C1CCC(N2C(=O)c3ccccc3C2=O)C(=O)N1 (stereo not shown) [thalidomide]
7-year survival estimate (GEP-defined low-risk myeloma, subset displaying cytogenetic abnormalities, thalidomide arm vs 30% on control arm, p=0.004 (FIG. 1B)): 67% | outcome vs control arm (all patients with GEP-defined low-risk myeloma, p=0.13): only trending toward better outcomes | 5-year survival estimate (low-risk patients, CA1/13 subgroup (CA without both CA1 and CA13), addition of thalidomide vs 59% control, p<0.001 (FIG. 1C)): 95% | survival outcomes on both treatment arms (low-risk patients, subgroups with no cytogenetic abnormalities and with CA1+13 (FIG. 1C)): similar | Overall Survival HR (95% CI), randomization to thalidomide (multivariate analysis, n/N 168/337, P 0.037): 0.69 (0.49, 0.98) | OS from Enrollment HR (95% CI), CA with thalidomide randomization (interaction term) (multivariate analysis, patients with GEP-defined low-risk, n/N 33/304, P 0.003): 0.27 (0.11, 0.64) | OS from Enrollment HR (95% CI), randomization to thalidomide (multivariate analysis, patients with GEP-defined low-risk, n/N 149/304, P 0.766): 1.08 (0.65, 1.79) | 7-year survival (patients exhibiting cytogenetic abnormalities (CA), randomized to thalidomide in TT2, vs 25% on control arm, p=0.015 (FIG. 1A)): 54% | Overall Survival HR (95% CI), randomization to thalidomide (univariate analysis, n/N 175/351, P 0.158): 0.78 (0.56, 1.10) | OS from Enrollment HR (95% CI), randomization to thalidomide (univariate analysis, patients with GEP-defined low-risk, n/N 149/305, P 0.140): 0.74 (0.50, 1.10)
